The text below walks through data of patent publication US4294841A, “Derivatives of 1-phenyl 3-(4-piperidyl) 1-propanone usable as drugs” (Pharmindustrie, priority 1978, dated 1981).

Structures are written as SMILES. Read-outs that look alike come from different tables or passages of the source.

Data set [1] relates to uptake of noradrenaline (NA). Briefly: inhibition test of the uptake of noradrenaline by synaptosomes of the rat brain (hypothalamus). The settings on record: read-out: I50 NA (hypothalamus). It counts as biochemical.
Excerpt: (§1) The results are expressed by a 50% inhibitory dose (I50) which represents the dose of product, in micromoles per liter, diminishing by 50% the uptake of the neuromediator considered in the specific regions (hypothalamus, medulla+pons) where the corresponding neurons predominate.
Data set [2] deals with uptake of serotonin (5-hydroxytryptamine, 5HT). The data set is described as follows: inhibition test of the uptake of serotonin by synaptosomes of the rat brain (medulla + pons). It counts as biochemical. The settings on record: read-out: I50 5HT (medulla + pons).
Excerpt: as §1
The target in data set [3] is receptors for benzodiazepines in the brain membranes (3H-diazepam binding site). The data set is described as follows: displacement of 3H-diazepam from its binding sites (method of H. Mohler et al.). Further details: species or system rat. The source says:
The anxiolytic activity of the benzodiazepines is well known. The presence of specific receptors for benzodiazepines in the brain membranes of the rat has also been well established (Squires et al. Nature 266, 732, (1977)) and a good correlation exists between the degree of affinity of benzodiazepines for the receiving binding sites and the pharmacodynamic effects observed in the animal and in man.
The results of Table II have been obtained by testing the products according to the method of H. Mohler et al., Life Sciences 20, 2101 (1977).
A general note: Displacement assays read how much labelled ligand stays bound in the presence of the test substance.

The nature of data set [4]: acute toxicity in the mouse per os. The arrangement: species or system Charles River). The settings on record: in vivo, po, male CD1 mouse, 3 days of observation. The source says:
The acute toxicities of the compounds of formula (I) have been determined on the male mouse CD1 (Charles River) per os. The LD50 have been calculated, after 3 days of observation, by the cumulative method of J. J. Reed and H. Muench (Amer. J. Hyg. 27, 493, (1938)).

Data set [5] relates to ventricular arhythmias caused by aconitine. Briefly: antiarhythmic activity, aconitine test in rats. It counts as in vivo. The settings on record: Rattus norvegicus, iv, read-out: ED50 (i.v.). On the procedure:
The principle of the technique rests on the induction time of ventricular arhythmias caused by aconitine which is slowly perfused in rats. An antiarhythmic substance retards the occurrence of arhythmias and this delay is proportional to the activity of the molecule.
Groups of five male rats are used. An individual anaesthesia is realized (10% urethane: 1 g/kg/ip) to allow a catheterization of the vein of the penis. The electrocardiogram is recorded. At time T=0 the substance investigated is injected in the form of an aqueous solution, at a rate of 2.5 ml of solution per kg in 30 seconds. At time T=90 seconds, that is 1 minute after the end of the injection, aconitine is perfused at a rate of 20 μg per minute until the appearance of supra-ventricular systoles. The time of perfusion of the aconitine is noted.
The results are expressed by an ED50, which is the dose in mg/kg increasing by 50% the perfusion time of aconitine in comparison with the perfusion time of aconitine for the control animals.

Where [6] appears, read: calculated from I50, read-out: Ki.

As usually defined, the Ki is the dissociation constant of the complex between target and ligand, obtained from inhibition or displacement. Usually LD50 stands for the dose expected to kill half of the subjects tested. High values mean a less toxic substance, low ones a more toxic substance. With `COc1ccc(CCCC2CCNCC2)cc1` [Example 6, 4-[3-(4-Methoxyphenyl) 1-propyl]piperidine], the IC50 in data set [1] was determined as 2200 nM; in data set [2], 20 nM. The Ki in data set [3] (setting [6]) was 19500 nM. Moreover, the LD50 at 72 h in data set [4] was found to be 400 mg/kg.
With `Fc1ccc(CCCC2CCNCC2)cc1` [Example 7, 4-[3-(4-Fluorophenyl)1-propyl]piperidine], the IC50 was 3000 nM in data set [1] and 10 nM in data set [2]. Also, the Ki in data set [3] (setting [6]) is 45000 nM. Also, the LD50 at 72 h in data set [4] turned out to be 225 mg/kg.
In the case of `Clc1ccc(CCCC2CCNCC2)cc1` [Example 8, 4-[3-(4-Chlorophenyl)1-propyl]piperidine], the values for the IC50 in data set [1] and in data set [2] were 900 nM and 90 nM, respectively. For the same compound, the Ki in data set [3] (setting [6]) is 36000 nM. This compound registered an LD50 at 72 h in data set [4] of 235 mg/kg.
For `Clc1ccc(CCCC2CCNCC2)cc1Cl` [Example 9, 4-[3-(3,4-dichlorophenyl)1-propyl]piperidine], the IC50 in data set [1] came to 1300 nM; in data set [2], 180 nM. The median lethal dose (LD50) at 72 h in data set [4] came out at 600 mg/kg.
Take `Cc1ccc(CCCC2CCNCC2)cc1` [Example 10, 4-[3-(4-Methylphenyl)1-propyl]piperidine]: the values for the IC50 in data set [1] and in data set [2] were 300 nM and 160 nM, respectively. In addition, the Ki in data set [3] (setting [6]) is 42000 nM. In data set [4], this compound had an LD50 at 72 h of 400 mg/kg.
As a reminder, the ED50 is the dose that gives a 50% effect, or the effect in half of the subjects. As for `c1ccc(CCCC2CCNCC2)cc1` [Example 16, 4-[3-(phenyl)propyl]piperidine], the IC50 in data set [1] worked out at 240 nM; in data set [2] it was 2 nM. In data set [5], the ED50 was determined as 2.5 mg/kg. Besides, the 50% lethal dose (LD50) at 72 h in data set [4] came out at 200 mg/kg.
`Nc1ccc(CCCC2CCNCC2)cc1` [Example 17, 4-[3-(4-Aminophenyl)propyl]piperidine]: in data set [3] (setting [6]), the Ki was 36000 nM.
In the case of `COc1ccc(C(=O)CCC2CCNCC2)cc1` [Example 19, 1-(4-methoxyphenyl) 3-(4-piperidyl) 1-propanone], the Ki in data set [3] (setting [6]) is 6500 nM. In data set [4], this compound had an LD50 at 72 h of 200 mg/kg.
With `Oc1ccccc1CCCC1CCNCC1` [Example 20, 2-[3-(4-Piperidyl)propyl]phenol], the Ki in data set [3] (setting [6]) was 29000 nM. In addition, the ED50 in data set [5] came out at 1.2 mg/kg.
As for `COc1ccc(C(O)CCC2CCNCC2)cc1` (stereo not shown) [Example 22, 1-(4-methoxyphenyl) 3-(4-piperidyl) 1-propanol], the Ki in data set [3] (setting [6]) is 32000 nM. Also, the LD50 at 72 h in data set [4] was found to be 800 mg/kg.
In the case of `CN(C)CCCN1c2ccccc2CCc2ccccc21` [Imipramine, reference compound], the IC50 in data set [1] was 500 nM; in data set [2], 120 nM. Besides, the Ki entry in data set [3] (calculated from I50) was “inactive”.
With `C=C[C@H]1C[N@@]2CC[C@H]1C[C@@H]2[C@@H](O)c1ccnc2ccc(OC)cc12` [Quinidine, reference compound], the ED50 in data set [5] turned out to be 4 mg/kg.
